Active and inactive are the calls of the source. The calls are words filed in the database; no cut-off is given here.
Tests used:
[1] = target: T1, Sentrin-specific protease 1 (Homo sapiens) (UniProt Q9P0U3); assay: Inhibition of recombinant human SENP1 assessed as reduction in deSUMOylation of RanGAP1-SUMO1 at 5 uM using RanGAP1-SUMO1 as substrate preincubated for 10 mins followed by substrate addition and measured after 30 mins relative to control; details: time 40.0 min
T1 sequence (whole entry): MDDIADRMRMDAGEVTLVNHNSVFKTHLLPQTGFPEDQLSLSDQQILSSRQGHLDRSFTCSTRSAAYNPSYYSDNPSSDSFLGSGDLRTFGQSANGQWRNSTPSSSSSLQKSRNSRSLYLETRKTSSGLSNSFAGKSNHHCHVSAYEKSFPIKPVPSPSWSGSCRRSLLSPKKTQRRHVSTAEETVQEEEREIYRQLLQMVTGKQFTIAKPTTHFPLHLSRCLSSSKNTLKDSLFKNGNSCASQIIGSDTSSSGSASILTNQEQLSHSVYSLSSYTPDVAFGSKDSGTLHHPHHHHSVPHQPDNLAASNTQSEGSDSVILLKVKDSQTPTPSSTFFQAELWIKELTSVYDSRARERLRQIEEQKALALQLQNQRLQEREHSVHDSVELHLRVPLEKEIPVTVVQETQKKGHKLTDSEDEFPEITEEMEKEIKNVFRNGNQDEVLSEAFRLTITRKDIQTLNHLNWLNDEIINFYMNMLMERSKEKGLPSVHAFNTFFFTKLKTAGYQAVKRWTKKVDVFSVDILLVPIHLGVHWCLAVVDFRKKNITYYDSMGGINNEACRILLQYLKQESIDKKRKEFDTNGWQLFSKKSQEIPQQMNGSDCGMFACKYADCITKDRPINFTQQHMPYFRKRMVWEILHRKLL

SK-OV-3 [2] = assay: Cytotoxicity against human SK-OV-3 cells assessed as reduction in cell viability incubated for 48 hrs by SRB assay; format: functional, cell-based; details: SK-OV-3, 48 h
SK-OV-3 [3] = assay: Reversal of platinum resistance in cisplatin-resistant human SK-OV-3 cells assessed as reduction in cisplatin IC50 after 48 hrs in presence of cisplatin by SRB assay (reference value: 28.23 microM); format: functional, cell-based; details: SK-OV-3, 48 h
[4] = target: T1, Sentrin-specific protease 1 (Homo sapiens); assay: (§1) Inhibition of recombinant human SENP1 assessed as reduction in deSUMOylation using RanGAP1-SUMO1 as substrate preincubated for 10 mins followed by substrate addition and measured after 30 mins; details: time 40.0 min, DDE = dose-dependent effect
[5] = target: T2, Sentrin-specific protease 1 (Homo sapiens, UniProt Q9P0U3); assay: as §1
T2 sequence (Q9P0U3 whole entry): T1 sequence (whole entry)

[6] = target: T1, Sentrin-specific protease 1 (Homo sapiens); assay: Inhibition of SENP1 in human SK-OV-3 cells assessed as increase in SUMOlytated JAK2 level at 5 uM after 48 hrs by immunoprecipitation method; format: cell-based
SK-OV-3 [7] = assay: Cytotoxicity against human SK-OV-3 cells assessed as cell viability at 500 uM incubated for 48 hrs by SRB assay; format: functional; details: read-out: Activity
SK-OV-3 [8] = assay: Synergistic reversal of platinum resistance in cisplatin-resistant human SK-OV-3 cells assessed as combination index after 48 hrs in presence of cisplatin by SRB assay; format: functional
SK-OV-3 [9] = assay: Cytotoxicity against human SK-OV-3 cells assessed as reduction in cell viability at 25 uM incubated for 48 hrs by SRB assay; format: functional, cell-based

SMILES	inhibition [1] [%]	further results
C=C(C)[C@@H]1CC[C@]2(C)[C@H](CC=C3[C@@H]4[C@@H](C)[C@H](C)CC[C@]4(C)CC[C@]32C)[C@@]1(C)CCC(=O)O	5.5	–
C[C@@H]1[C@H]2C3=CC[C@@H]4[C@@]5(C)CC[C@@H](O)C(C)(C)[C@@H]5CC[C@@]4(C)[C@]3(C)CC[C@@]2(C)[C@@H](O)C[C@H]1C(=O)O	65.5	–
C[C@@H]1CC[C@]2(C(=O)O)CC[C@]3(C)C(=CC[C@@H]4[C@@]5(C)CC[C@@H](O)[C@](C)(CO)[C@@H]5CC[C@]43C)[C@@H]2[C@]1(C)O	19.9	–
C[C@H]1[C@H](C)CC[C@]2(CO)CC[C@]3(C)C(=CC[C@@H]4[C@@]5(C)CC[C@H](O)C(C)(C)[C@@H]5CC[C@]43C)[C@H]12	58.4	–
CC1(C)CC[C@]2(C(=O)O)[C@H](O)C[C@]3(C)C(=CC[C@@H]4[C@@]5(C)CC[C@H](O)C(C)(C)[C@@H]5CC[C@]43C)[C@@H]2C1	–	IC50 (SK-OV-3 [2]): 96.5 µM; IC50 (SK-OV-3 [3]): 21.5 µM
C[C@@H]1CC[C@]2(C(=O)O)CC[C@]3(C)C(=CC[C@@H]4[C@@]5(C)C[C@@H](O)[C@H](O)C(C)(C)[C@@H]5CC[C@]43C)[C@@H]2[C@]1(C)O [TOMENTIC ACID]	> 100	inhibition [4]: Dde; IC50 [5]: 4.3 µM; inhibition [6]: Active; IC50 (SK-OV-3 [2]): 23.2 µM; viability at 500 µM (SK-OV-3 [7]): > 25%; IC50 (SK-OV-3 [3]): 2.4 µM; CI (SK-OV-3 [8]): 0.3
C[C@H]1[C@H](C)CC[C@]2(C(=O)O)CC[C@]3(C)C(=CC[C@@H]4[C@@]5(C)C[C@@H](O)[C@H](O)C(C)(C)[C@@H]5CC[C@]43C)[C@H]12 [COROSOLIC ACID]	34.4	Activity (SK-OV-3 [9]): Active; IC50 (SK-OV-3 [2]): 10.5 µM; IC50 (SK-OV-3 [3]): 26.4 µM
C[C@@H]1CC[C@]2(C(=O)O)CC[C@]3(C)C(=CC[C@@H]4[C@@]5(C)C[C@H](O)[C@H](O)C(C)(C)[C@@H]5CC[C@]43C)[C@@H]2[C@]1(C)O	1.7	–
C[C@@H]1CC[C@]2(C(=O)O)CC[C@]3(C)C(=CC[C@@H]4[C@@]5(C)CC[C@H](O)[C@@](C)(CO)[C@@H]5[C@H](O)C[C@]43C)[C@@H]2[C@]1(C)O	0.5	–
C[C@@H]1[C@H]2C3=CC[C@@H]4[C@@]5(C)CC[C@H](O)C(C)(C)[C@@H]5CC[C@@]4(C)[C@]3(C)CC[C@@]2(C)CC[C@H]1C(=O)O	69.2	–
C[C@H]1[C@H](C)CC[C@]2(C)CC[C@]3(C)C(=CC(=O)[C@@H]4[C@@]5(C)CC[C@@H](O)[C@](C)(C(=O)O)[C@@H]5CC[C@]43C)[C@H]12	8.9	–
C[C@@H]1CC[C@]2(C(=O)O)CC[C@]3(C)C(=CC[C@@H]4[C@@]5(C)CC[C@H](O)C(C)(C)[C@@H]5CC[C@]43C)[C@@H]2[C@]1(C)O [POMOLIC ACID]	> 100	inhibition [4]: Dde; IC50 [5]: 5.1 µM; inhibition [6]: Active; IC50 (SK-OV-3 [2]): 51.6 µM; viability at 500 µM (SK-OV-3 [7]): > 25%; IC50 (SK-OV-3 [3]): 3.69 µM; CI (SK-OV-3 [8]): 0.23
C[C@@H]1CC[C@]2(C(=O)O)CC[C@]3(C)C(=CC[C@@H]4[C@@]5(C)C[C@@H](O)[C@@H](O)C(C)(C)[C@@H]5CC[C@]43C)[C@@H]2[C@]1(C)O	66.6	–
C[C@H]1[C@H](C)CC[C@]2(C)CC[C@]3(C)C(=CC[C@@H]4[C@@]5(C)CC[C@@H](O)[C@](C)(C(=O)O)[C@@H]5CC[C@]43C)[C@H]12	3.9	–
C[C@H]1[C@H](C)CC[C@]2(C(=O)O)CC[C@]3(C)C(=CC[C@@H]4[C@@]5(C)CC[C@@H](O)C(C)(C)[C@@H]5CC[C@]43C)[C@H]12	8.4	–
C[C@@H]1CC[C@]2(C(=O)O)CC[C@]3(C)C(=CC[C@@H]4[C@@]5(C)CC[C@H](O)C(C)(C)[C@@H]5[C@H](O)C[C@]43C)[C@@H]2[C@]1(C)O	3.2	–
C[C@H]1[C@H](C)CC[C@]2(C(=O)O)CC[C@]3(C)C(=CC[C@@H]4[C@@]5(C)CC[C@H](O)C(C)(C)[C@@H]5CC[C@]43C)[C@H]12	87.6	–
C[C@@H]1CC[C@]2(C(=O)O)CC[C@]3(C)C(=CC[C@@H]4[C@@]5(C)C=C(O)C(=O)C(C)(C)[C@@H]5CC[C@]43C)[C@@H]2[C@]1(C)O	6	–
C[C@@H]1CC[C@]2(C(=O)O)CC[C@]3(C)C(=CC[C@@H]4[C@@]5(C)[C@H](O)C(=O)[C@H](O)C(C)(C)[C@@H]5CC[C@]43C)[C@@H]2[C@]1(C)O	1.9	–
C[C@@H]1CC[C@]2(C(=O)O)CC[C@]3(C)C(=CC[C@@H]4[C@@]5(C)[C@H](O)[C@@H](O)[C@H](O)C(C)(C)[C@@H]5CC[C@]43C)[C@@H]2[C@]1(C)O	78.4	–
C[C@H]1[C@H](C)CC[C@]2(C(=O)O)CC[C@]3(C)C(=CC[C@@H]4[C@@]5(C)C[C@@H](O)[C@H](O)[C@@](C)(CO)[C@@H]5CC[C@]43C)[C@H]12	6.6	–
